# Assay results from US20050215635A1, “Diarylheptanoid compounds and uses thereof” (priority 2004, published 2005).
# Legend:
# [1] = system: Du-145 prostate tumor cells; test: MTT-microculture tetrazolium cell viability assay / induction of apoptosis in Du-145; assay type: cell-based; conditions: for IC50: Homo sapiens, Du-145 prostate tumor cells, MTT, 72 hours incubation, drug concentration giving 50% inhibition of growth, read-out: IC50 (μM), Effects of Diarylheptanoids on Inducing Apoptosis in DU-145 Cancer Cell Line; for activity in bioassay: inducing apoptosis in Du-145 cancer cell line (in words): bioassay-directed fractionation of Alpinia officinarum
# Experimental: The rhizomes of Alpinia officinarum were purchased from Nuherbs Co. (Oakland, Calif.). Du-145 prostate tumor cells were obtained from the American Type Culture Collection (ATCC). Cells were maintained at 37° C. in an atmosphere of 5% CO2 and grown in Roswell Park Memorial Institute (RPMI) media 1640 (GIBCO/BRL) with 10% fetal bovine serum and with 5% penicillin and streptomycin.
# The powdered roots of Alpinia officinarum were extracted with methanol and concentrated under vacuum using rotary evaporation. The dried residue was then partitioned with hexanes, ethyl acetate and 1-butanol successively. The three extracts were subjected to bioassays.
# The dried ethyl acetate extract was then chromatographed on a normal phase silica gel column (2.5×30 cm) to perform bioassay-directed fractionation. The extract was first dissolved in methanol and loaded onto the column packing material. The prepared extract was then placed on top of the column and elution was performed using a solvent mixture of chloroform/methanol with an increasing amount of methanol (30:1, 20:1, 10:1, 5:1, 0:100; each 1000 mL). Successive fractions were collected and tested for biological activity. […] This fraction was then rechromatographed on a semipreparative Zorbax Rx-C18 reversed phase HPLC column (9.4 mm×240 mm, 5 μm) purchased from MacMod Analytical (Chadds Ford, Pa.). Compounds were eluted by an isocratic solvent system: 55% A, water with 0.05% formic acid (FA); 45% B, ACN (v/v) at a flow rate of 4 mL/min. The wavelength monitored was 205 nm. Successive fractions (1-3) were collected and sent for biological testing again.
# Cellular growth in the presence or absence of experimental agents was determined using the modified method as previously described MTT-microculture tetrazolium assay (World Health Organization (ED.), Medicinal Plants in China, WHO Regional Publications, 1989, 21). Briefly, rapidly growing cells were harvested, counted, and inoculated at the appropriate concentrations (100 μL volume) into 96-well micro-titer plates using a multichannel pipet. After 24 hours, AO-1 to AO-5 were applied in different concentrations to triplicate culture wells, and cultures were incubated for 72 hours at 37° C. MTT ( Sigma, St. Louis, Mo.) was prepared at 2 mg/ml in Phosphate buffered saline (PBS) and 50 μL were added to microculture wells. After 4 hour incubation at 37° C., […] were removed from each well, and 150 μL of 100% DMSO were added to solubilize the MTT-formazan product. After thorough mixing with a mechanical plate mixer, absorbence was measured at 570 nm using a Dynatech microplate reader. […] This assay is based on the reduction of MTT tetrazolium salt to a formazan product by the metabolic activity of live cells and which was measured in a multiwell scanning spectrophotometer. Cell line growth and growth inhibition were expressed in terms of mean absorbance units and following the substraction of mean background absorbance.
# [2] = Radical-scavenging activity by DPPH; conditions: for IC50: DPPH 63.4 μM in methanol, absorbance at 515 nm, steady state, read-out: IC50 (μM) of Diarylheptanoids in Scavenging DPPH Free Radicals; for free radical scavenging, DPPH data (in words): DPPH assay
# Excerpt: In this example, the 2,2-diphenyl-1-picrylhydrazyl (DPPH) method was used to explore the capacity of five isolated compounds of the invention to act as free radical scavengers. The DPPH assay has been extensively used to test the free radical scavenging ability of various chemicals (Brand-williams, W. et al., Wiss. Technol. 1995, 28, 25-30; Dinis, T. C. et al., Arch. Biochem. Biophys. 1994, 315, 161-169.)
# This method was adapted from that of Brand-Williams, et al. (Brand-williams, W.; Cuvelier, M. E.; Berset, C. Lebensm. Wiss. Technol. 1995, 28, 25-30.). At least seven different concentrations were prepared for each purified compound. 25 μl pure compound solution and 975 μL DPPH solution (63.4 μM) were mixed together and left in the dark for 30 min. Each sample was triplicated and the values were averaged. The absorbance of the samples was measured at 515 nm against methanol solution without DPPH as the blank reference. The absorbance was measured every 30 min until the reaction reached a plateau. The reaction kinetics were then plotted using the above data and the percentage of DPPH remaining at the steady state was obtained. IC50 values were determined by extrapolation from linear regression analysis.
# DPPH, 2,2-Diphenyl-1-picrylhydrazyl (DPPH.), is a stable radical in methanol solution. In its radical form, DPPH. absorbs at 515 nm, but the absorption ceases upon reduction by an antioxidant (AH) or a radical species (R.) (Brand-williams, W.; Cuvelier, M. E.; Berset, C. Lebensm. Wiss. Technol. 1995, 28, 25-30.). The concentration of tested chemicals needed to decrease the initial DPPH. concentration by 50% (IC50) is a parameter widely used to measure the antioxidant potential (Kanner, J.; Frankel, E.; German, B.; Kinsella, J. e. J. Agric. Food Chem. 1994, 42, 64-69, Vinson, J. A.; Dabbagh, Y. A.; Serry, M. M. J. Agric. Food Chem. 1995a, 43,2800-2802.). The lower the IC50, the higher the free radical scavenging power.
IC50 [1] [µM],IC50 [2] [µM],Structure (SMILES),activity in bioassay: inducing apoptosis in Du-145 cancer cell line (in words) [1],"free radical scavenging, DPPH data (in words) [2]"
100,11.4,"COc1cc(CCC(O)CC(=O)CCc2ccccc2)ccc1O (stereo not shown) [AO-1, 5-Hydroxy-7-(4″-hydroxy-3″methoxyphenyl)-1-phenyl-3-heptanone]",biological activity to some level,very good free radical scavengers
88,12.7,"COc1cc(CCC(CC(=O)CCc2ccccc2)OC)ccc1O (stereo not shown) [AO-2, 5-methoxy-7-(4″-hydroxy-3″methoxyphenyl)-1-phenyl-3-heptanone]",some activity,very good free radical scavengers
20,> 1000,"O=C(/C=C/CCc1ccc(O)cc1)CCc1ccccc1 [AO-3, 7-(4″-hydroxyphenyl)-1-phenyl-hept-4-en-3-one]",some activity,–
32,> 5000,"O=C(/C=C/CCc1ccccc1)CCc1ccccc1 [AO-5, 1,7-diphenylhept-4-en-3-one]",–,–
